For one data set, the system named is E. coli H1187 (fepA-). Put plainly: Growth recovery assay, E. coli (fepA-). Type of data set: cell-based, Escherichia coli. As to conditions: 200 μM DP. The method, then: (§1) General microbiology methods are as described herein or according to processes known in the art. […] Bacterial growth was assayed by measuring OD600 using a BioTek Synergy HT plate reader. Each well condition was prepared in duplicate and three independent replicates of each assay were conducted on different days. The resulting mean OD600 are reported and the error bars are the standard deviation of the mean obtained from the three independent replicates.
(§2) Three non-pathogenic E. coli strains were employed that are defective in enterobactin synthesis, enterobactin transport, or ferric enterobactin utilization in growth recovery assays. E. coli ATCC 33475 (ent-) cannot biosynthesize enterobactin, but retains the capacity to import and metabolize the siderophore.^71 E. coli H1187 (fepA-) lacks the outer membrane enterobactin receptor. E. coli K-12 JW0576 (fes-) can accumulate ferric enterobactin, but cannot release the iron because it is deficient in the enterobactin esterase Fes. As a result of these defects in iron metabolism, all three strains grow poorly under conditions of iron limitation.^71 The iron chelator 2,2′-dipyridyl (dipyridyl, DP) was used to generate iron-deficient conditions and promote expression of siderophore transport machinery in the growth recovery assays.

Data set [1] deals with E. coli K-12 JW0576 (fes-). Put plainly: Growth recovery assay, E. coli (fes-). It is filed as cell-based, Escherichia coli. The following applies: 200 μM DP. The method, then: as §1, §2
The test system of data set [2] is human colon epithelial T84 cells. Put plainly: Cytotoxicity study using MTT. As to conditions: 24 h; for effect on viability of T84 cells (MTT): concentrations up to 10 μM. The method, then:
Colon epithelial T84 cell line (purchase from ATCC) were grown in DMEM/F12 medium containing penicillin (100 I.U./mL) and streptomycin (100 μg/mL). The cells were passed and plated in 96-well flat-bottom plates ˜16 h before treatment. Each well contained 90 µL of the cell culture at a density of 10^5 cells/mL. Stock solutions of the tested conjugates (e.g., Ent-Amp) were prepared in sterile filtered 10% DMSO/water, and 10 μL of the each solution was added to each well. The plate was incubated at 37° C. and under 5% CO2 for 24 h and 20 μL of MTT (5 mg/mL in sterile PBS) was added to each well. The plate was incubated at 37° C. for another 4 h, and the supernatant was removed from each well. DMSO (100 μL) was added to the wells to afford a purple solution, and the absorbance at 550 nm was recorded by using a plate reader. Blank readings were generated by wells that only contain the growth medium but no cells. The assay was repeated in three independent trials, and the resulting mean and standard errors are reported. […] Ent-Amp, Ent, and Amp were incubated with human colon epithelial T84 cells for 24 h.
In another exemplary experiment, the human colon epithelial T84 cell line was purchased from ATCC and cultured in 1:1 DMEM/F12 medium with 10% fetal bovine serum, 1% penicillin, and streptomycin (v/v, ATCC). The cells were grown to approximately 95% confluency and treated with 3 mL of trypsin-EDTA (Corning). A 12-mL portion of fresh medium was added to the detached cells, and the T84 cell suspension was centrifuged (600 rpm×5 min, 37° C.). The supernatant was discarded, and the cell pellet was resuspended in 6 mL of the fresh culture media. The concentration of cells was quantified by using a manual hemocytometer (VWR International) and adjusted to 1×10^5 cells/mL. A 90-μL aliquot of T84 cells were then added to 96-well plates and incubated at 37° C. and 5% CO2 for 24 h. […] DMSO (100 μL) was added to each well and the absorbance at 550 nm was recorded by using a plate reader. Blank readings were recorded on wells that only contained the medium. […]

Data set [3] has as its system P. aeruginosa K648 (pvd-, pch-). It is filed as cell-based, Pseudomonas aeruginosa. The method, then:
as §1
(§3) It was next sought to determine whether the enterobactin-cargo conjugates provided growth recovery for Pseudomonas aeruginosa PAO1. This Gram-negative opportunistic human pathogen synthesizes and exports two siderophores, pyoverdine (pvd) and pyochelin (pch), and employs multiple additional mechanisms for iron acquisition.^72,73 P. aeruginosa utilizes enterobactin as a xenosiderophore, and the genes pfeA^74,75 and pirA^76 encode outer membrane enterobactin transporters. Similar to the E. coli experiments, P. aeruginosa strains deficient in siderophore production or utilization were used in growth recovery assays.

The conditions of data set [4]: three catecholate groups; cited from earlier work.
In data set [5] the test system is E. coli ATCC 33475 (ent-). It is filed as cell-based, Escherichia coli. The following applies: 10 μM. The method, then: as §1, §2
The test system of data set [6] is P. aeruginosa K407 (pvd-, pFr-). Kind of data set: Growth recovery assay, P. aeruginosa (pfeA-). Type of data set: cell-based, Pseudomonas aeruginosa. The following applies: 600 μM DP; for growth inhibition of P. aeruginosa (pfeA-): micromolar concentrations. The method, then:
as §1, §3

Another data set addresses Lipocalin-2 (lcn2) (Homo sapiens, UniProt P80188). The following applies: cited from earlier work.
The next data set deals with FepA (Escherichia coli, UniProt P05825). As to conditions: E. coli outer membrane transporter; cited from earlier work.
Sequence of FepA (P05825 23-746): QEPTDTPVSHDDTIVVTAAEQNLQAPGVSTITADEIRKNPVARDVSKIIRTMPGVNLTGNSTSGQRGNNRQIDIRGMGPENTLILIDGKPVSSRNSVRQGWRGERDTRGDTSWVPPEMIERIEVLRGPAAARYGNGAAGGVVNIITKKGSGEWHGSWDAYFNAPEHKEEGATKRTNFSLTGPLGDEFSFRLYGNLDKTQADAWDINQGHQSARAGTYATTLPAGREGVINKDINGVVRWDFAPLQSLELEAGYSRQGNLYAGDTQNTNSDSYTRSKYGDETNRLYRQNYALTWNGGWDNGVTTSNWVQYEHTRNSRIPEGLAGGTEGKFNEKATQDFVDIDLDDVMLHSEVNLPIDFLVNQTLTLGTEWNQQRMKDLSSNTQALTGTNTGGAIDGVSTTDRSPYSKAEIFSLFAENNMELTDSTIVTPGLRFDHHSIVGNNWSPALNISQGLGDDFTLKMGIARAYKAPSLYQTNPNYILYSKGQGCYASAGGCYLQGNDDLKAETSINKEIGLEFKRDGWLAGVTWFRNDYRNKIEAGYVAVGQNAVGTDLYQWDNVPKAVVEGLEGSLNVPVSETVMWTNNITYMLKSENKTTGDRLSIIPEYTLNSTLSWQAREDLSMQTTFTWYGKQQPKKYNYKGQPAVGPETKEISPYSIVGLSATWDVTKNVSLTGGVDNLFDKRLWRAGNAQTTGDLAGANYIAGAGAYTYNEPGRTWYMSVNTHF

Sequence of Lipocalin-2 (lcn2) (P80188 21-198): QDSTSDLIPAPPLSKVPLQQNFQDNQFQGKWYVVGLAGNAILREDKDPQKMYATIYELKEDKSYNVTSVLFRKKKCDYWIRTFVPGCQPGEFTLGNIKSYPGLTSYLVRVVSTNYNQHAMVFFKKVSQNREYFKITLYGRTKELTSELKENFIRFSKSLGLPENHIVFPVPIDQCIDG

In the case of `CC(C)(C)OC(=O)NCCOCCOCCOCCNC(=O)c1cc(O)c(O)c(C(=O)N[C@H]2COC(=O)[C@@H](NC(=O)c3cccc(O)c3O)COC(=O)[C@@H](NC(=O)c3cccc(O)c3O)COC2=O)c1` [conjugate 29, Tert-butyl(1-(3-(((3S,7S,11S)-7,11-bis(2,3-dihydroxybenzamido)-2,6,10-trioxo-1,5,9-trioxacyclododecan-3-yl)carbamoyl)-4,5-dihydroxyphenyl)-1-oxo-5,8,11-trioxa-2-azatridecan-13-yl)carbamate], the “growth restoration of E. coli (fepA-)” value in the data set with E. coli H1187 (fepA-) is reported as “No growth restoration”. For the same compound, the “growth restoration of E. coli (fes-)” value in [1] was “No growth restoration”.
Take `O=C(N[C@H]1COC(=O)[C@@H](NC(=O)c2cccc([O-])c2[O-])COC(=O)[C@@H](NC(=O)c2cccc([O-])c2[O-])COC1=O)c1cccc([O-])c1[O-].[Fe+3]` [Ent with pre-loaded Fe]: the “effect on viability of T84 cells (MTT)” value in [2] is recorded as “did not exhibit this effect”.
Take `O=C(N[C@H]1COC(=O)[C@@H](NC(=O)c2cccc(O)c2O)COC(=O)[C@@H](NC(=O)c2cccc(O)c2O)COC1=O)c1cccc(O)c1O` [L-Ent, Enterobactin]: in data set [3] (low-micromolar concentrations, 50% MHB, 600 μM DP, 30° C., t=19 h), the “OD600 of P. aeruginosa (pvd-, pch-) culture” value was approximately 0.40. The “Ka for Fe(III) coordination” value in data set [4] was ~10^49 M^−1. Moreover, the “decrease of percent survival of T84 cells” value in data set [2] (10 μM) is listed as “approximately 30%”. The “OD600 of E. coli (ent-) culture” value in data set [5] (50% MHB, 200 μM DP, 30° C., t=19 h) was approximately 0.2. In [6], the “growth enhancement of P. aeruginosa (pfeA-)” value is recorded as “no growth enhancement” and the “growth inhibition of P. aeruginosa (pfeA-)” value is “growth inhibition at micromolar concentrations”.
Vancomycin-PEG-Ent [conjugate 42]: in [3] (±DP), the “effect on growth of P. aeruginosa (pvd-, pch-)” value is “growth inhibitory effect”. Besides, the “effect on E. coli growth” value in [5] (+DP) is “inhibited the growth of E. coli”.
As for `CC1(C)S[C@@H]2[C@H](NC(=O)[C@H](N)c3ccccc3)C(=O)N2[C@H]1C(=O)O` [Amp, Ampicillin], the “effect on viability of T84 cells (MTT)” value in [2] is given as “did not affect the viability of human cells significantly”.
In the case of `O=C(N[C@H]1COC(=O)[C@@H](NC(=O)c2cccc([O-])c2[O-])COC(=O)[C@@H](NC(=O)c2cccc([O-])c2[O-])COC1=O)c1cccc([O-])c1[O-].[Fe+3]` [ferric enterobactin], the “affinity of lcn2 for ferric enterobactin” value on Lipocalin-2 (lcn2) is “low-nanomolar affinity”. In addition, the “affinity of FepA for ferric enterobactin” value at FepA is “sub-nanomolar affinity”.
Consider `O=C(NCCOCCOCCOCCNC(=O)C1CCCCC1)c1cc(O)c(O)c(C(=O)N[C@H]2COC(=O)[C@@H](NC(=O)c3cccc(O)c3O)COC(=O)[C@@H](NC(=O)c3cccc(O)c3O)COC2=O)c1` [conjugate 30, N^3-((3S,7S,11S)-7,11-Bis(2,3-dihydroxybenzamido)-2,6,10-trioxo-1,5,9-trioxacyclododecan-3-yl)-N^1-(1-cyclohexyl-1-oxo-5,8,11-trioxa-2-azatridecan-13-yl)-4,5-dihydroxyisophthalamide], for which, in the data set on E. coli H1187 (fepA-), the “growth restoration of E. coli (fepA-)” value was “No growth restoration”. The “growth restoration of E. coli (fes-)” value in [1] is on record as “No growth restoration”. Moreover, in data set [6], the “growth enhancement of P. aeruginosa (pfeA-)” value is “no growth enhancement” and the “growth inhibition of P. aeruginosa (pfeA-)” value was “growth inhibition at micromolar concentrations”.

These data come from US9902986B2, “Enterobactin conjugates and uses thereof” (Massachusetts Institute of Technology, priority 2013, dated 2018).
